8 compounds from US9388137B2, “Quaternized amines as sodium channel blockers” (Purdue Pharma L.P., priority 2011, dated 2016) can be followed below.

Structures are written as SMILES.

One assay concerns the target hNav1.7 (Homo sapiens (Human), UniProt Q15858). The experiment in a line: Electrophysiology (EP) assay, whole-cell patch clamp. In kind it is cell-based. The settings on record: hNav1.7 HEK-293 cells. Background: Patch clamp records ionic current or voltage across a cell membrane.
The target of the next assay is human Nav1.7 (Homo sapiens (Human), UniProt Q15858). Description: FLIPR sodium dye assay for sodium channel blocking activity. The settings on record: recombinant Nav1.7/HEK293 cells. In kind it is cell-based.

What is called IC50 is the concentration at which inhibition is half-maximal.

Sequence of human Nav1.7 (Q15858 other isoform, or with tags, fused parts or gaps): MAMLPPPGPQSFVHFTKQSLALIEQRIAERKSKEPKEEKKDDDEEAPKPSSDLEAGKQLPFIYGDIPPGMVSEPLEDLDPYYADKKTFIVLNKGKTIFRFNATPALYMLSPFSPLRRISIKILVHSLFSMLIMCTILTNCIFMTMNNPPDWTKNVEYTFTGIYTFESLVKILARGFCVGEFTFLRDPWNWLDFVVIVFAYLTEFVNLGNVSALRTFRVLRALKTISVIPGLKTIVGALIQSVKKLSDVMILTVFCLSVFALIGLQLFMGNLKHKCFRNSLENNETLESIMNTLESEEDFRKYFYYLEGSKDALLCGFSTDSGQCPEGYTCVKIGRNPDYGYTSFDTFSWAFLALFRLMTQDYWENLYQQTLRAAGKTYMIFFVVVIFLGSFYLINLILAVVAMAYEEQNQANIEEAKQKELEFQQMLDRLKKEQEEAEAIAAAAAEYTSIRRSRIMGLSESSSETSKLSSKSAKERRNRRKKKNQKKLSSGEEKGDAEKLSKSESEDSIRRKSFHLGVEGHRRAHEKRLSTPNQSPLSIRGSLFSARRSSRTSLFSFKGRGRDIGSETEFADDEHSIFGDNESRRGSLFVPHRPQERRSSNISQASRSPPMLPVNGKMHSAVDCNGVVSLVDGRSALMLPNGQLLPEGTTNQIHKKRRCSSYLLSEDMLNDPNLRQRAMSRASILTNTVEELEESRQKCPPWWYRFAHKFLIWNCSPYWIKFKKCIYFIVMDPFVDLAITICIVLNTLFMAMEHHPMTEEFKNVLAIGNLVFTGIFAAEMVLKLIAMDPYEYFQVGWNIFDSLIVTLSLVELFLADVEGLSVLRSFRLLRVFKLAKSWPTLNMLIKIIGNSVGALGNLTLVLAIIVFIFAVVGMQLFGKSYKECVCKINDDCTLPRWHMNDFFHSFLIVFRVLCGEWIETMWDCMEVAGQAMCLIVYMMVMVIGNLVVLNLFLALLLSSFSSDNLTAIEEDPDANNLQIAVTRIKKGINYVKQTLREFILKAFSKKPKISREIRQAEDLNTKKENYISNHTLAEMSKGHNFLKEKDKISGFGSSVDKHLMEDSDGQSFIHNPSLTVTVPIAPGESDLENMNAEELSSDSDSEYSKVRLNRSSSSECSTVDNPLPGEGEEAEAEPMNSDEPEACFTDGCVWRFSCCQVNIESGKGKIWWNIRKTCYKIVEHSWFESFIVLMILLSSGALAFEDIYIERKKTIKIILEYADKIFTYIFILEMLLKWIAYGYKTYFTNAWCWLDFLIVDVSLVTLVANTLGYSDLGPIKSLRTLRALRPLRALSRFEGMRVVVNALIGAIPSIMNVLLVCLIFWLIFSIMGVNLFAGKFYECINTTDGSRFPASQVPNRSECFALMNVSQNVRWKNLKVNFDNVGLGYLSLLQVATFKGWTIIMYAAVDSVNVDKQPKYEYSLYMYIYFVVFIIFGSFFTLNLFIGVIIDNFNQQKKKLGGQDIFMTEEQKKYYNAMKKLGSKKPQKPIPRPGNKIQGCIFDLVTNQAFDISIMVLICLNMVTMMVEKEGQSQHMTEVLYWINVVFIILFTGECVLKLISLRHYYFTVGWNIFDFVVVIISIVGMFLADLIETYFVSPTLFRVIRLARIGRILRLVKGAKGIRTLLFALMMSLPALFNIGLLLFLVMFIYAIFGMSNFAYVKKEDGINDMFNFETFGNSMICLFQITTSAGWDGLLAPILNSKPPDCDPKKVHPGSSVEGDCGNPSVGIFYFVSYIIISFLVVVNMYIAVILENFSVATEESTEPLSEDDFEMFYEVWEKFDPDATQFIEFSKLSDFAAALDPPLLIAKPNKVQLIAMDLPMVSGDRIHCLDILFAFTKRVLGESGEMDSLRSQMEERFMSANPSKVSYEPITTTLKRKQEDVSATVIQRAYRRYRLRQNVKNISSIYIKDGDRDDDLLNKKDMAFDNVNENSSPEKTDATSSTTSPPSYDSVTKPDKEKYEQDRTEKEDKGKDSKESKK
Sequence of hNav1.7 (Q15858 other isoform, or with tags, fused parts or gaps): as above

Regarding `Cc1cc(C(=O)NCC[N+]2(C)CCCCC2)cc(-c2ccc(Oc3ccc(F)cc3)cc2)n1` [Example 1, 1-[2-({2-[4-(4-fluoro-phenoxy)-phenyl]-6-methyl-pyridine-4-carbonyl}-amino)-ethyl]-1-methyl-piperidinium], the Ki on hNav1.7 (affinity for the inactivated state of the channel, read-out: Nav1.7 Activity EP assay Ki) is 6.03 ± 0.91 µM. Also, the Kd on hNav1.7 (dissociation constant for binding to the resting state of the channel, read-out: Nav1.7 Activity EP assay Kr) came to 125 ± 23.4 µM. The IC50 at human Nav1.7 was determined as 0.872 ± 0.255 µM.

`Cc1cc(C(=O)NCC[N+]2(C)CCOCC2)cc(-c2ccc(Oc3ccc(F)cc3)cc2)n1` [Example 2, 4-[2-({2-[4-(4-fluoro-phenoxy)-phenyl]-6-methyl-pyridine-4-carbonyl}-amino)-ethyl]-4-methyl-morpholin-4-ium]: the IC50 on human Nav1.7 turned out to be 1.88 ± 0.287 µM.

On to `Cc1cc(C(=O)N2CCC([N+]3(C)CCCC3)CC2)cc(-c2ccc(Oc3ccc(F)cc3)cc2)n1` [Example 3, 1-(1-{2-[4-(4-fluoro-phenoxy)-phenyl]-6-methyl-pyridine-4-carbonyl}-piperidin-4-yl)-1-methyl-pyrrolidinium], for which the IC50 at human Nav1.7 was over 20 µM.

For `Cc1cc(C(=O)NCc2ccc([N+](C)(C)C)cc2)cc(-c2ccc(Oc3ccc(F)cc3)cc2)n1` [Example 4, {4-[({2-[4-(4-fluoro-phenoxy)-phenyl]-6-methyl-pyridine-4-carbonyl}-amino)-methyl]-phenyl}-trimethyl-ammonium], the half-maximal inhibitory concentration (IC50) on human Nav1.7 was 3.99 ± 0.289 µM.

For the compound `Cc1cc(C(=O)NCC[N+]2(C)CCCC2)cc(-c2ccc(Oc3ccc(F)cc3)cc2)n1` [Example 5, 1-[2-({2-[4-(4-fluoro-phenoxy)-phenyl]-6-methyl-pyridine-4-carbonyl}-amino)-ethyl]-1-methyl-pyrrolidinium], the half-inhibitory concentration (IC50) on human Nav1.7 amounted to 2.9 ± 0.375 µM.

Turning to `Cc1cc(C(=O)NCC[N+](C)(C)C)cc(-c2ccc(Oc3ccc(F)cc3)cc2)n1` [Example 6, [2-({2-[4-(4-fluoro-phenoxy)-phenyl]-6-methyl-pyridine-4-carbonyl}-amino)-ethyl]-trimethyl-ammonium], the IC50 at human Nav1.7 came to 6.52 ± 0.466 µM.

As for `Cc1cc(C(=O)N2CC[N+](C)(C)CC2)cc(-c2ccc(Oc3ccc(F)cc3)cc2)n1` [Example 7, 4-{2-[4-(4-Fluoro-phenoxy)-phenyl]-6-methyl-pyridine-4-carbonyl}-1,1-dimethyl-piperazin-1-ium], the IC50 on human Nav1.7 is over 20 µM.

Consider `Cc1cc(C(=O)N(C)C2CC[N+](C)(C)CC2)cc(-c2ccc(Oc3ccc(F)cc3)cc2)n1` [Example 8, 4-({2-[4-(4-Fluoro-phenoxy)-phenyl]-6-methyl-pyridine-4-carbonyl}-methyl-amino)-1,1-dimethyl-piperidinium], for which, at human Nav1.7, the IC50 was over 20 µM.
